Source: patent US9073895B2 (Boehringer Ingelheim International GmbH, priority 2010, dated 2015)
pIC50: −log10 of the molar value.

How the values were obtained:
[1] = test system: synthesis of LTB4 in human whole blood; assay: Human whole blood LTB4 production inhibition assay; assay type: cell-based; settings: heparinized human whole blood, calcimycin 20 μM, plasma LTB4; read-out: HuWB IC50
Method in brief: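 Whole-blood cellular format, heparinized human donors: 15 min compound pretreatment, then 30 min calcimycin stimulation (20 μM final), both at 37° C. Low-speed centrifugation yields plasma, in which LTB4 is read by homogeneous time-resolved fluorescence immunoassay.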

[2] = biological target: T1, recombinant human FLAP protein (Homo sapiens, UniProt P20292); assay: FLAP binding assay (SPA, displacement of [125I]L-691,831); settings: membranes of sf9 cells expressing human FLAP, [125I]L-691,831 probe; read-out: hFLAP binding IC50
T1 construct: made in house; host or cells: Sf9 insect cells (membrane fraction, 100,000 x g pellet)
T1 sequence (P20292 1-161): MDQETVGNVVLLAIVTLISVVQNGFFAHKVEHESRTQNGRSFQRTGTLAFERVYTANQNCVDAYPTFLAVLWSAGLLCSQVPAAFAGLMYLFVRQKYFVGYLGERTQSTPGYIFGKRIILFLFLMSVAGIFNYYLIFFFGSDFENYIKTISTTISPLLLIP
Method in brief: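 Membranes from sf9 cells expressing human FLAP (5 μg/well) were bound to WGA SPA beads (200 μg/well). Nonspecific binding was defined with 10 μM unlabelled L-691,831.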

Compound: Cc1nccn1-c1ccc(NC(=O)C2(c3ccc(-c4cnc(N)nc4)cc3)CCOCC2)cc1 [Example 224, 4-[4-(2-aminopyrimidin-5-yl)phenyl]-N-[4-(2-methyl-1H-imidazol-1-yl)phenyl]tetrahydro-2H-pyran-4-carboxamide]
- pIC50 [1]: 6.14
- pIC50 [2]: 7.52

Compound: Nc1ncc(-c2ccc(C3(C(=O)Nc4ccc(Oc5ccccc5)cc4)CCOCC3)cc2)cn1 [Example 1, 4-[4-(2-aminopyrimidin-5-yl)phenyl]-N-(4-phenoxyphenyl)tetrahydro-2H-pyran-4-carboxamide]
- pIC50 [1]: 6.34
- pIC50 [2]: 7.80

Compound: N#Cc1ccc(NC(=O)C2(c3ccc(-c4cnc(N)nc4)cc3)CCOCC2)cc1Cl [Example 3, 4-[4-(2-aminopyrimidin-5-yl)phenyl]-N-(3-chloro-4-cyanophenyl)tetrahydro-2H-pyran-4-carboxamide]
- pIC50 [1]: 6.48
- pIC50 [2]: 7.95

Compound: Cc1nc(-c2ccc(NC(=O)C3(c4ccc(-c5cnc6[nH]cnc6c5)cc4)CCOCC3)nc2)cs1 [Example 197, 4-[4-(3H-imidazo[4,5-b]pyridin-6-yl)phenyl]-N-[5-(2-methyl-1,3-thiazol-4-yl)pyridin-2-yl]tetrahydro-2H-pyran-4-carboxamide]
- pIC50 [1]: 5.61
- pIC50 [2]: 7.57

Compound: Cc1nc(-c2ccc(NC(=O)C3(c4ccc(-c5cnc6c(c5)CCN6)cc4)CCOCC3)nc2)cs1 [Example 153, 4-[4-(2,3-dihydro-1H-pyrrolo[2,3-b]pyridin-5-yl)phenyl]-N-[5-(2-methyl-1,3-thiazol-4-yl)pyridin-2-yl]tetrahydro-2H-pyran-4-carboxamide]
- pIC50 [1]: 6.29
- pIC50 [2]: 8.11

Compound: Nc1ncc(-c2ccc(C3(C(=O)Nc4ccc(-c5cscn5)cn4)CCOCC3)cc2)cn1 [Example 143, 4-[4-(2-aminopyrimidin-5-yl)phenyl]-N-[5-(1,3-thiazol-4-yl)pyridin-2-yl]tetrahydro-2H-pyran-4-carboxamide]
- pIC50 [1]: 6.19
- pIC50 [2]: 7.77

Compound: Nc1ncc(-c2ccc(C3(C(=O)Nc4ccc(CN5CCS(=O)(=O)CC5)cc4)CCOCC3)cc2)cn1 [Example 148, 4-[4-(2-aminopyrimidin-5-yl)phenyl]-N-{4-[(1,1-dioxidothiomorpholin-4-yl)methyl]phenyl}tetrahydro-2H-pyran-4-carboxamide]
- pIC50 [1]: 5.40
- pIC50 [2]: 6.44

Compound: COc1ccc(NC(=O)C2(c3ccc(-c4cnc(N)nc4)cc3)CCOCC2)cn1 [Example 2, 4-[4-(2-aminopyrimidin-5-yl)phenyl]-N-(6-methoxypyridin-3-yl)tetrahydro-2H-pyran-4-carboxamide]
- pIC50 [1]: 5.86
- pIC50 [2]: 6.68

Compound: Nc1ncc(-c2ccc(C3(C(=O)Nc4cc(C(F)(F)F)ccc4N4CCOCC4)CCOCC3)cc2)cn1 [Example 81, 4-[4-(2-aminopyrimidin-5-yl)phenyl]-N-[2-(morpholin-4-yl)-5-(trifluoromethyl)phenyl] tetrahydro-2H-pyran-4-carboxamide]
- pIC50 [1]: < 5.52
- pIC50 [2]: 7.27

Compound: CS(=O)(=O)c1ccc(NC(=O)C2(c3ccc(-c4cnc(N)nc4)cc3)CCC2)cn1 [Example 89, 1-[4-(2-aminopyrimidin-5-yl)phenyl]-N-[6-(methylsulfonyl)pyridin-3-yl]cyclobutanecarboxamide]
- pIC50 [1]: 6.69
- pIC50 [2]: 8.09

Compound: COc1ccc(-c2ccc(NC(=O)C3(c4ccc(-c5cnc(N)nc5)cc4)CCC3)nc2)cn1 [Example 208, 1-[4-(2-aminopyrimidin-5-yl)phenyl]-N-(6'-methoxy-3,3'-bipyridin-6-yl)cyclobutanecarboxamide]
- pIC50 [1]: 6.34
- pIC50 [2]: 8.47

Compound: N#Cc1ccc(NC(=O)C2(c3ccc(-c4cnc(N)nc4)cc3)CCC2)nc1 [Example 232, 1-[4-(2-aminopyrimidin-5-yl)phenyl]-N-(5-cyanopyridin-2-yl)cyclobutanecarboxamide]
- pIC50 [1]: 6.82
- pIC50 [2]: 8.13

Compound: CCN(CC)S(=O)(=O)c1cccc(NC(=O)C2(c3ccc(-c4cnc(N)nc4)cc3)CCOCC2)c1 [Example 78, 4-[4-(2-aminopyrimidin-5-yl)phenyl]-N-[3-(diethylsulfamoyl)phenyl] tetrahydro-2H-pyran-4-carboxamide]
- pIC50 [1]: < 5.52
- pIC50 [2]: 6.95

Compound: Nc1ncc(-c2ccc(C3(C(=O)Nc4cccc(-c5ccccc5)c4)CCOCC3)cc2)cn1 [Example 24, 4-[4-(2-aminopyrimidin-5-yl)phenyl]-N-(biphenyl-3-yl)tetrahydro-2H-pyran-4-carboxamide]
- pIC50 [1]: < 5.52
- pIC50 [2]: 7.02

Compound: COC(=O)c1sc(-c2ccc(Cl)cc2)cc1NC(=O)C1(c2ccc(-c3cnc(N)nc3)cc2)CCOCC1 [Example 73, methyl 3-[({4-[4-(2-aminopyrimidin-5-yl)phenyl]tetrahydro-2H-pyran-4-yl}carbonyl)amino]-5-(4-chlorophenyl)thiophene-2-carboxylate]
- pIC50 [1]: 5.82
- pIC50 [2]: 7.27

Compound: Nc1ncc(-c2ccc(C3(C(=O)Nc4ccc(Cc5ccccc5)cc4)CCOCC3)cc2)cn1 [Example 54, 4-[4-(2-aminopyrimidin-5-yl)phenyl]-N-(4-benzylphenyl)tetrahydro-2H-pyran-4-carboxamide]
- pIC50 [1]: 5.95
- pIC50 [2]: 7.35

Compound: CC(C)(C)c1cc(NC(=O)C2(c3ccc(-c4cnc(N)nc4)cc3)CCOCC2)ccn1 [Example 47, 4-[4-(2-aminopyrimidin-5-yl)phenyl]-N-(2-tert-butylpyridin-4-yl)tetrahydro-2H-pyran-4-carboxamide]
- pIC50 [1]: 5.49
- pIC50 [2]: 7.19

Compound: Cn1nccc1-c1ccc(NC(=O)C2(c3ccc(-c4cnc(N)nc4)cc3)CCOCC2)nc1 [Example 218, 4-[4-(2-aminopyrimidin-5-yl)phenyl]-N-[5-(1-methyl-1H-pyrazol-5-yl)pyridin-2-yl]tetrahydro-2H-pyran-4-carboxamide]
- pIC50 [1]: 6.02
- pIC50 [2]: 7.49

Compound: N#Cc1cc(NC(=O)C2(c3ccc(-c4cnc(N)nc4)cc3)CCC2)ccn1 [Example 236, 1-[4-(2-aminopyrimidin-5-yl)phenyl]-N-(2-cyanopyridin-4-yl)cyclobutanecarboxamide]
- pIC50 [1]: 6.54
- pIC50 [2]: 8.46

Compound: Nc1ncc(-c2ccc(C3(C(=O)Nc4ccc(O)nc4)CCC3)cc2)cn1 [Example 221, 1-[4-(2-aminopyrimidin-5-yl)phenyl]-N-(6-hydroxypyridin-3-yl)cyclobutanecarboxamide]
- pIC50 [1]: < 5.52
- pIC50 [2]: 6.54

Compound: Nc1ncc(-c2ccc(C3(C(=O)Nc4ccc5ncsc5c4)CCC3)cn2)cn1 [Example 92, 1-[6-(2-aminopyrimidin-5-yl)pyridin-3-yl]-N-(1,3-benzothiazol-6-yl)cyclobutanecarboxamide]
- pIC50 [1]: 6.14
- pIC50 [2]: 7.81

Compound: Nc1ncc(-c2ccc(C3(C(=O)Nc4ccncc4)CCC3)cc2)cn1 [Example 177, 1-[4-(2-aminopyrimidin-5-yl)phenyl]-N-(pyridin-4-yl)cyclobutanecarboxamide]
- pIC50 [1]: 6.66
- pIC50 [2]: 8.29

Compound: Nc1ncc(-c2ccc(C3(C(=O)Nc4nc(-c5ccccc5)cs4)CCOCC3)cc2)cn1 [Example 20, 4-[4-(2-aminopyrimidin-5-yl)phenyl]-N-(4-phenyl-1,3-thiazol-2-yl)tetrahydro-2H-pyran-4-carboxamide]
- pIC50 [1]: 5.87
- pIC50 [2]: 7.80

Compound: Cc1nc(-c2ccc(NC(=O)C3(c4ccc(-c5cnc(N)c(CO)c5)cc4)CCOCC3)nc2)cs1 [Example 176, 4-{4-[6-amino-5-(hydroxymethyl)pyridin-3-yl]phenyl}-N-[5-(2-methyl-1,3-thiazol-4-yl)pyridin-2-yl]tetrahydro-2H-pyran-4-carboxamide]
- pIC50 [1]: 6.15
- pIC50 [2]: 8.18

Compound: COc1ccc(NC(=O)C2(c3ccc(-c4cnc(N)nc4)cc3)CCC2)nc1 [Example 217, 1-[4-(2-aminopyrimidin-5-yl)phenyl]-N-(5-methoxypyridin-2-yl)cyclobutanecarboxamide]
- pIC50 [1]: 6.41
- pIC50 [2]: 8.08

Compound: N#Cc1ccc(NC(=O)C2(c3ccc(-c4cnc(N)nc4)nc3)CCC2)nc1 [Example 94, 1-[6-(2-aminopyrimidin-5-yl)pyridin-3-yl]-N-(5-cyanopyridin-2-yl)cyclobutanecarboxamide]
- pIC50 [1]: 6.07
- pIC50 [2]: 7.19

Compound: Cc1nc(-c2ccc(NC(=O)C3(c4ccc(-c5cnc(N)nc5)cn4)CCOCC3)nc2)cs1 [Example 128, 4-[5-(2-aminopyrimidin-5-yl)pyridin-2-yl]-N-[5-(2-methyl-1,3-thiazol-4-yl)pyridin-2-yl]tetrahydro-2H-pyran-4-carboxamide]
- pIC50 [1]: 6.09
- pIC50 [2]: 6.85

Compound: COC(=O)c1cccc(NC(=O)C2(c3ccc(-c4cnc(N)nc4)cc3)CCOCC2)c1 [Example 80, methyl 3-[({4-[4-(2-aminopyrimidin-5-yl)phenyl]tetrahydro-2H-pyran-4-yl}carbonyl)amino]benzoate]
- pIC50 [1]: < 5.52
- pIC50 [2]: 7.22

Compound: CC(C)(C)c1nsc(NC(=O)C2(c3ccc(-c4cnc(N)nc4)cc3)CCOCC2)n1 [Example 124, 4-[4-(2-aminopyrimidin-5-yl)phenyl]-N-(3-tert-butyl-1,2,4-thiadiazol-5-yl)tetrahydro-2H-pyran-4-carboxamide]
- pIC50 [1]: 5.66
- pIC50 [2]: 7.11

Compound: COc1cncc(-c2ccc(NC(=O)C3(c4ccc(-c5cnc6[nH]ccc6c5)cc4)CCOCC3)nc2)c1 [Example 167, N-(5'-methoxy-3,3'-bipyridin-6-yl)-4-[4-(1H-pyrrolo[2,3-b]pyridin-5-yl)phenyl]tetrahydro-2H-pyran-4-carboxamide]
- pIC50 [1]: 6.45
- pIC50 [2]: 8.33
